“Also recorded” adds a separate entry of the source.
These molecules were tested on microglial cells (assay: Nitrite quantification by Griess method in LPS-activated microglial cells). Conditions: test compound at 1 μM; 10 ng/ml LPS; medium collected after 48 h; control 0.1% DMSO; read-out: % of NO/control.
Type: cell-based
Experimental: (§1) The experiments that were carried out concern the ability of these molecules to inhibit the liberation of nitrites and Tumor Necrosis Factor-alpha (TNF-α) in the activated microglia. NO and TNF-α production are two common parameters related to inflammatory processes.
To evaluate the nitrite production, microglial cells were cultured in DMEM-F12 medium containing 2% heat-inactivated FBS in 48 well plates at a density of 20000 cells per well. Peripheral wells of the plate were discarded. After 72 h, 400 μL out of 500 μL medium was replaced by 350 μL fresh medium. The cells were treated with each molecule to be tested by adding 50 μL of a 10× solution to obtain a final concentration ranging from 0.1 μM to 1 μM. Each treatment was done in duplicates. 10 ng/ml LPS was added after 1 hour and the medium was collected after 48 h and stored at −20° C. until analysis. To quantify the NO production, nitrites were measured using Griess reactive (sulfanilamide 1%, Sigma; N-(1-Naphthyl)ethylenediamine 0.1%, Sigma; phosphoric acid 2.5%). Briefly, 100 μL of medium was placed into a 96 well plate and 100 μL of Griess reactive was added. After […] incubation at RT in the dark, the OD was measured at 550 nm.
The ability of each test compound to decrease the production of nitrite is presented as a percent decrease in OD with respect to the absorbance of the control condition i.e. 0.1% DMSO.

Q: Which activity at 1 µM does the source give for `COc1ccc(-c2oc3ccc(CCCCCCCCCCCCO)cc3c(=O)c2O)cc1OC` here?
A: 87.7 ± 7.7%

Q: With `COc1ccc(-c2oc3ccc(CCCCCCCCCCCCCO)cc3c(=O)c2O)cc1OC` as the molecule, how does the activity at 1 µM read?
A: 89 ± 7.6%

Q: Which activity at 1 µM does the source give for `O=c1c(O)c(-c2ccc(O)c(O)c2)oc2ccc(CCCCCCCCCCCCO)cc12` here?
A: 84.5 ± 5.9%

Q: How did the activity at 1 µM turn out when `O=c1c(O)c(-c2ccc(O)c(O)c2)oc2ccc(CCCCCCCCCCCCCO)cc12` was run?
A: 86.3 ± 4.2%

Q: For `COc1cc(-c2oc3ccc(CCCCCCCCCCCCCO)cc3c(=O)c2OC)ccc1O`, which activity at 1 µM is on record?
A: 95.3 ± 4.8%

Q: For `COc1ccc(-c2oc3ccc(CCCCCCCCCCCCCO)cc3c(=O)c2O)cc1O`, which activity at 1 µM is on record?
A: 103 ± 4%

Q: For `COc1cc(-c2oc3cc(O)c(CCCCCCCCCCCCO)cc3c(=O)c2O)ccc1O`, which activity at 1 µM is on record?
A: 90.3 ± 3.9%

Q: How did the activity at 1 µM turn out when `COc1cc(-c2oc3cc(O)c(CCCCCCCCCCCCCO)cc3c(=O)c2O)ccc1O` was run?
A: 98.2 ± 1%

Q: Which activity at 1 µM does the source give for `COc1cc(-c2oc3cc(O)c(CCCCCCCCCCCCO)c(O)c3c(=O)c2O)ccc1O` here?
A: 99.6 ± 1.5%

Q: Which activity at 1 µM does the source give for `COc1cc(-c2oc3cc(O)c(CCCCCCCCCCCCCO)c(O)c3c(=O)c2O)ccc1O` here?
A: 109 ± 10.5%

Q: How did the activity at 1 µM turn out when `O=c1c(O)c(-c2ccc(O)c(O)c2)oc2cc(O)c(CCCCCCCCCCCCO)c(O)c12` was run?
A: 81.6 ± 4%

Q: For `O=c1c(O)c(-c2ccc(O)c(O)c2)oc2cc(O)c(CCCCCCCCCCCCCO)c(O)c12`, which activity at 1 µM is on record?
A: 82.4 ± 6.3%

Q: `COc1c(CCCCCCCCCCCCO)c(O)cc2oc(-c3ccc(O)c(O)c3)c(O)c(=O)c12` was tested. Which activity at 1 µM did it give?
A: 112 ± 1.7%

Q: How did the activity at 1 µM turn out when `COc1c(CCCCCCCCCCCCCO)c(O)cc2oc(-c3ccc(O)c(O)c3)c(O)c(=O)c12` was run?
A: 91.5 ± 2.6%

Q: How did the activity at 1 µM turn out when `COc1cc(-c2oc3cc(O)c(CCCCCCCCCCCCO)c(OC)c3c(=O)c2O)ccc1O` was run?
A: 97.6 ± 6.9%

Q: For `COc1cc(-c2oc3cc(O)c(CCCCCCCCCCCCCO)c(OC)c3c(=O)c2O)ccc1O`, which activity at 1 µM is on record?
A: 96.6 ± 4.2%

Q: With `COc1cc(-c2cc(=O)c3cc(CCCCCCCCCCCCCO)ccc3o2)ccc1O` as the molecule, how does the activity at 1 µM read?
A: 102 ± 3.8%

Q: For `COc1cc(-c2oc3cc(O)c4cc(CCCCCCCCCCCCO)oc4c3c(=O)c2O)ccc1O`, which activity at 1 µM is on record?
A: 112 ± 8%

Q: Which activity at 1 µM does the source give for `O=c1c(O)c(-c2ccc(O)c(O)c2)oc2cc(O)c3cc(CCCCCCCCCCCCO)oc3c12` here?
A: 112 ± 9.2%

Q: How did the activity at 1 µM turn out when `COc1cc(-c2oc3ccc(CCCCCCCCCCCO)cc3c(=O)c2O)ccc1O` [drawing 16] was run?
A: 72 ± 3%

Q: `COc1cc(-c2oc3ccc(CCCCCCCCCCCCO)cc3c(=O)c2O)ccc1O` [drawing 17] was tested. Which activity at 1 µM did it give?
A: 61.1 ± 3.1%

Q: For `COc1cc(-c2oc3ccc(CCCCCCCCCCCCCO)cc3c(=O)c2O)ccc1O` [drawing 18, 3-hydroxy-2-(4-hydroxy-3-methoxyphenyl)-6-(13-hydroxytridecyl)-4H-chromen-4-one], which activity at 1 µM is on record?
A: 59.8 ± 2.1%

Q: With `COc1cc(-c2oc3ccc(CCCCCCCCCCCCCCO)cc3c(=O)c2O)ccc1O` [drawing 19] as the molecule, how does the activity at 1 µM read?
A: 77.5 ± 3.9%

Q: Which activity at 1 µM does the source give for `CCCCCCCCCCCCCc1ccc2oc(-c3ccc(O)c(OC)c3)c(O)c(=O)c2c1` [drawing 35] here?
A: 85 ± 0.9%

These molecules were tested on microglial cells (assay: TNF-α quantification by ELISA in supernatant of microglial cells). Conditions: test compound at 1 μM; medium collected 48 h after treatment; control 0.1% DMSO.
Type: cell-based
Experimental: as §1
To quantify the presence of TNF-α in the supernatant of microglial cells, the medium was collected 48 h after treatment as described above. The ELISA 96 well plate was incubated overnight with the capture antibody (0.8 μg/ml, R&D). 10 μl of each sample was diluted with 90 μL of incubation buffer (PBS-BSA 1%, pH 7.2-7.4) and the plate was incubated for 2 h at RT. The plate was washed 3 times and incubated for 2 h with the detection antibody (150 ng/mL, R&D). […] After […] incubation at RT, the reaction was stopped with an equal volume of a 10% solution of sulfuric acid and the OD was measured at 450 nm.
The ability of each test compound to decrease the production of TNF-α is presented as a percent decrease in OD with respect to the absorbance of the control condition i.e. 0.1% DMSO.

Q: `COc1cc(-c2oc3ccc(CCCCCCCCCCCO)cc3c(=O)c2O)ccc1O` [drawing 38] was tested. Which “% of TNF-α/control” value did it give?
A: 69.2 ± 3.9%

Q: `COc1cc(-c2oc3ccc(CCCCCCCCCCCCCO)cc3c(=O)c2O)ccc1O` [drawing 40] was tested. Which “% of TNF-α/control” value did it give?
A: 77.2 ± 9.4%

Q: `COc1cc(-c2oc3ccc(CCCCCCCCCCCCCCO)cc3c(=O)c2O)ccc1O` [drawing 41] was tested. Which “% of TNF-α/control” value did it give?
A: 75.4 ± 17.2%

Q: For `CCCCCCCCCCCCCc1ccc2oc(-c3ccc(O)c(OC)c3)c(O)c(=O)c2c1` [drawing 42], which “% of TNF-α/control” value is on record?
A: 91.2 ± 7.9%

Each molecule was assayed on microglial cell line (assay: Real-time PCR gene expression analysis in microglial cell line with or without LPS activation). Conditions: 1 μM, 3 hours incubation, with or without LPS 0.01 μg/ml; normalized to β-actin.
Type: cell-based
Experimental: To evaluate mRNA expression levels, total RNA was extracted using invisorb
RNA extraction kit (Invitek). The concentration was determined by reading the OD at 260 nm. Retro-transcription was performed using Im-Prom-II™ Reverse Transcription System (Promega) with 1 μg of total RNA.
The reaction mixture contained 12.5 μl 2× SYBR Green mastermix (Biorad), 1 μl cDNA, 1 μl of each primer (12.5 μM) and 9.5 μl of H2O. The real-time PCR amplification was controlled by the MyIQ5 system (Biorad). After activation of the enzyme at 94° C. for […], the amplification was done by cycling 40 times between a denaturation step at 94° C. and the annealing step at 54.5° C. Gene expression was analyzed using the provided software and normalized to beta-actin expression.
FIG. 1: Compound B inhibits microglial activation in vitro. Real-time PCR gene expression analysis in microglial cell line. RNA extraction was performed after 3 hours of incubation with compound B (1 μM), with or without LPS activation (0.01 μg/ml).

Q: `COc1cc(-c2oc3ccc(CCCCCCCCCCCCCO)cc3c(=O)c2O)ccc1O` [Compound B, 3-hydroxy-2-(4-hydroxy-3-methoxyphenyl)-6-(13-hydroxytridecyl)-4H-chromen-4-one] was tested. Which “Expression of transcripts (iNOS, TNF-α gene expression) in treated microglial cells” value did it give?
A: significantly decreased

What follows are molecules tested on NSCs derived neurospheres (assay: Differentiation of NSCs to neurons: real-time PCR of Hes5 and Mash1 in neurospheres (Notch signaling)). Conditions: 1 μM, vs 0.1% DMSO vehicle, β-actin internal control.
Type: cell-based, mouse
Experimental: The NSCs derived neurospheres culture was established from embryonic mouse cortices. Neurospheres were maintained in Neurobasal-A medium supplemented with B27 w/o retinoic acid, 2 mM Glutamine, 20 ng/ml EGF and antibiotics. The neurospheres were dissociated using a non enzymatic dissociation medium (Invitrogen) and the single cell suspension added to a flask with fresh medium. To differentiate the neurospheres into neurons, oligodendrocytes and astrocytes, 3 to 4 days old neurospheres were cultured in poly-ornithine treated 35 mm dishes. Cells were treated with test compounds (1 μM) or 0.1% DMSO vehicle as control in Neurobasal-A medium supplemented with B27 w/o retinoic acid, 2 mM Glutamine, antibiotics, 2 ng/ml EGF and 0.5% of heat inactivated FBS. RNA extraction was performed after 24 hours of incubation and gene expression was analyzed by real-time PCR.
The primer pairs for mouse Mash1, Hes5 and beta-actin were designed with the beacon designer software (premierbiosoft).
Notch signaling controls a wide variety of cell fate decisions, including the differentiation of NSCs during neurogenesis [Artavanis-Tsakonas, S. et al., Science, 1999, 284, 770]. […] Notch activation induces the expression of the downstream effectors Hes1 and Hes5, which down-regulate gene transcription of b-HLH transcription factors such as Mash1. Therefore, we tested whether compounds of general Formula (I) and (II) could modulate Notch signalling in NSCs. […] Inhibition of the Hes5 gene expression in the treated cultures was further correlated with an increase of Mash1 transcripts, a b-HLH factor involved in neuronal specification and differentiation [Ito, H. et al., J Neurosci Res. 2003, 71, 648].
FIG. 2: Compound A and B induces NSCs differentiation into neurons. Real-time PCR gene expression analysis in neurospheres. RNA extraction was performed after […] of incubation with compound A and B (1 μM) or with 0.1% DMSO vehicle as control.

Q: Which Hes5 gene expression does the source give for `COc1cc(-c2oc3ccc(CCCCCCCCCCCCO)cc3c(=O)c2O)ccc1O` [Compound A, 3-hydroxy-2-(4-hydroxy-3-methoxyphenyl)-6-(12-hydroxydodecyl)-4H-chromen-4-one] here?
A: decrease

Q: And the Mash1 transcripts?
A: increase; also recorded: significantly increased

Q: How did the Hes5 gene expression turn out when `COc1cc(-c2oc3ccc(CCCCCCCCCCCCCO)cc3c(=O)c2O)ccc1O` [Compound B, 3-hydroxy-2-(4-hydroxy-3-methoxyphenyl)-6-(13-hydroxytridecyl)-4H-chromen-4-one] was run?
A: decrease

Q: And the Mash1 transcripts?
A: increase; also recorded: significantly increased

The molecules below were run on SH-SY5Y neuroblastoma cell line (assay: Differentiation of human neuroblastoma cell line SH-SY5Y into neurons: real-time PCR of Hash1 and Notch1). Conditions: 1 μM, 24 hours; vs 0.1% DMSO vehicle; β-actin internal control.
Type: cell-based
Experimental: SH-SY5Y cells were cultured in 6 well plates at a density of 500000 cells per well and was maintained in DMEM with 10% FBS. After 24 h, the cells were treated with test compounds (1 μM) or 0.1% DMSO vehicle as control. RNA extraction was performed after 24 hours of incubation and gene expression was analyzed by real-time PCR.
The specific primer pairs directed against human Hash1, Notch1 and beta-actin are from the online database qprimerdepot (http://primerdepot.nci.nih.gov/).
The human homolog of Mash1, Hash1, is expressed in neuroblastoma cell lines. […] 2001, 36,132]. Therefore, we tested whether compounds of general Formula (I) and (II) could induce the differentiation of SH-SY5Y neuroblastoma cell line by modulating the gene expression of Hash1 and Notch1.
FIG. 3: Compound A and B induces neuroblastoma differentiation into a neuronal phenotype. Real-time PCR gene expression analysis in SH-SY5Y neuroblastoma cell line. RNA extraction was performed after 24 hours of incubation with compound A and B (1 μM) or with 0.1% DMSO vehicle as control.

Q: Which Hash1 transcripts does the source give for `COc1cc(-c2oc3ccc(CCCCCCCCCCCCO)cc3c(=O)c2O)ccc1O` [Compound A, 3-hydroxy-2-(4-hydroxy-3-methoxyphenyl)-6-(12-hydroxydodecyl)-4H-chromen-4-one] here?
A: inhibit; also recorded: significantly decreased

Q: And the Notch1 transcripts?
A: inhibit; also recorded: significantly decreased

Q: How did the Hash1 transcripts turn out when `COc1cc(-c2oc3ccc(CCCCCCCCCCCCCO)cc3c(=O)c2O)ccc1O` [Compound B, 3-hydroxy-2-(4-hydroxy-3-methoxyphenyl)-6-(13-hydroxytridecyl)-4H-chromen-4-one] was run?
A: inhibit; also recorded: significantly decreased

Q: What about the Notch1 transcripts of the same molecule?
A: inhibit; also recorded: significantly decreased
